Measurements from patent publication US10416163B2, “Method and treatment of recurring endometrial cancer with an inhibitor of USP14” (Regents of the University of Minnesota, priority 2016, dated 2019).
Read-outs that look alike come from different tables or passages of the source.

Key:
[1] = system: HEC155 endometrial cancer cell line; experiment: Cell viability assay (WST-1), HEC155; type: cell-based; conditions: for IC50: HEC155, 48 hours exposure
Procedure: (§1) Cell viability was determined by 2,3-bis[2-methoxy-4-nitro-5-sulfophenyl]-2H-tetrazolium-5-carboxanilide inner salt assay as previously described. Briefly, cells were seeded at the concentration of 1.000 per well in 100 μL medium in 96-well plate and treated with the indicated concentrations of drugs. At the indicated time points, cells were incubated according to the manufacturer's protocol with the WST-1 labeling mixture for 2 hours. Formazan dye was quantified using a spectrophotometric plate reader to measure the absorbance at 450 nm (ELISA reader 190; Molecular Devices).
(§2) The next step was to investigate whether USP14 is a molecular target for endometrial cancer cells. To this end, the expression levels of USP14 in a panel of endometrial cancer cell lines including HEC155, EFE184 and ECC1 was first measured. These cells were chosen as they represent the most aggressive and most likely to recur endometrial cancer types. As shown in FIG. 4A (left panel), all cell lines tested expressed USP14 with HEC155 and ECC1 having the highest levels. Next. ECC1 and HEC155 endometrial cancer cells were exposed to increasing concentrations of the small-molecule inhibitor […] and the residual cell viability was measured after a period of 48 hours.
(§3) In the clinical setting, recurrent endometrial cancer is usually resistant to chemotherapy. Previous studies have reported that among endometrial cancer cell lines, HEC155 and ECC1 have the highest levels of LCAM, a marker for endometrial cancer recurrence. […] Thus, the IC50 levels for carboplatin treatment of HEC155 and ECC1 cells was measured.

[2] = system: ubiquitin-dependent protein degradation in HEC155 cells; experiment: Western blot for accumulation of poly-ubiquitinated proteins, HEC155; type: cell-based
Procedure: (§4) Total cellular protein (10-20 μg) from each sample was separated by SDS-PAGE, transferred to PVDF membranes and subjected to Western blot analysis. Antibodies for Western blot analysis were obtained by the following commercial sources: anti-USP14 (Bethyl Laboratories), anti-ubiquitin (Santa Cruz Biotechnology), anti-β-actin (Sigma). Peroxidase-linked anti-mouse Immunoglobulin G and peroxidase-linked anti-rabbit Immunoglobulin G were from Amersham.
(§5) USP14 is a proteasome-associated deubiquitinating enzyme whose role is to remove ubiquitin molecules from targeted proteins prior to degradation by the 20S catalytic activities of the proteasome. […] Thus, the consequences of USP14 inhibition on ubiquitin-dependent protein degradation in endometrial cancer cells was investigated. To this end, ECC1 and HEC155 cells were exposed to 150 nM or 250 nM VLX1570, respectively, over a period of 24 hours and the effect on cellular protein ubiquitination was evaluated by Western blot analysis after 0, 2, 8 or 12 hours from drug exposure. […] Quantifications of the changes in high molecular weight ubiquitin species in each respective cell line, versus control, are given in FIGS. 5B and 5D (top panels).
(§6) Next, endometrial cancer cell lines were exposed to increasing concentrations of VLX1570 ([…] for ECC1 and HEC155, respectively) over a period of 24 hours. The effect on accumulation of poly-ubiquitinated proteins was evaluated by Western blot. […] Quantifications of the changes in high-molecular weight ubiquitin species in dose-dependent fashion are given in FIGS. 5B and 5D (bottom panels).

[3] = system: HEC155 endometrial cancer cells; experiment: Apoptosis by flow cytometry (active caspase-3, Annexin V, propidium iodide), HEC155; type: cell-based
Procedure: (§7) Cell cycle status following treatment with drug or vehicle alone was determined via flow cytometry analysis. Specifically, cells were harvested at indicated time points and fixed in 70% ethanol on ice for 2 hours. Following washing with PBS, cells were stained with 0.1% (m/v) propidium iodide in PBS-T. Apoptosis was measured using antibodies against active Caspase-3 (BD Pharmingen) or Annexin V (BD Pharmingen) which were combined with propidium iodide staining (Sigma-Aldrich). For apoptosis assays, samples were fixed and stained according to manufacturer's instructions. Fluorescence was measured with a FACSCantoII flow cytometer (Becton Dickinson) and analyzed with FlowJo software.
(§8) Next, the fate of ECC1 and HEC155 endometrial cancer cells following VLX1570-induced cell cycle arrest was evaluated. Specifically, it was tested whether the reduction in cell viability following drug treatment is consistent with onset of apoptosis. The expression levels of active caspase-3 in control versus VLX1570 treated cells was measured. Importantly, caspase-3 is an active cell-death protease involved in the execution phase of apoptosis, where cells undergo morphological changes such as DNA fragmentation, chromatin condensation and apoptotic body formation.
(§9) Similarly, the fraction of cells taking up propidium iodide, a feature of both advanced apoptosis and necrosis, is elevated in […]. These findings support the hypothesis that pharmacological inhibition of USP14 triggers apoptosis in endometrial cancer cells.

[4] = system: ECC1 endometrial cancer cells; experiment: Apoptosis by flow cytometry (active caspase-3, Annexin V, propidium iodide), ECC1; type: cell-based
Procedure: as §7, §8, §9

[5] = system: ES-2 ovarian cancer cells; experiment: Cell viability of sensitive and carboplatin-resistant ES-2; type: cell-based
Procedure: (§10) FIG. 11. COV362 and ES-2 carboplatin-resistant clones. Residual cell viability of sensitive and resistant COV362 and ES-2 ovarian cancer cells exposed to the indicated concentrations of carboplatin over a period of 48 hours.
(§11) FIG. 12. Carboplatin resistant COV362 and ES-2 ovarian cancer cells are sensitive to USP14 inhibition. Residual cell viability of resistant COV362 and ES-2 ovarian cancer cells exposed to the indicated concentrations of the FDA approved USP14 inhibitor VLX1570 over a period of 48 hours. The structure of VLX1570 is:
(§12) Carboplatin-resistant ovarian cancer cell lines are sensitive to pharmacological inhibition of USP14. Two ovarian cancer cell lines, COV-362 and ES-2 were exposed to carboplatin according to the method described in FIG. 9 and the resulting USP14 overexpressing clones were subjected to cell viability assay to assess the extent of chemoresistance. […] Next, the sensitivity of COV362 and ES-2 resistant clones to the FDA approved USP14 inhibitor VLX1570 was determined.

[6] = system: ECC1 endometrial cancer cell line; experiment: Cell viability assay (WST-1), ECC1; type: cell-based; conditions: for IC50: ECC1, 48 hours exposure
Procedure: as §1, §2, §3

[7] = system: ubiquitin-dependent protein degradation in ECC1 cells; experiment: Western blot for accumulation of poly-ubiquitinated proteins, ECC1; type: cell-based
Procedure: as §4, §5, §6

[8] = system: HEC155 endometrial cancer cells; experiment: Cell cycle distribution by propidium iodide flow cytometry, HEC155; type: cell-based; conditions: HEC155, 300 nM, 24 hours
Procedure: as §7
(§13) The USP14 modulates levels of cell cycle regulatory proteins whose dysregulation is expected to affect the cell cycle. This is further supported by the findings showing a strong correlation between USP14 and Ki67 staining in clinical specimens of endometrial cancer. Thus, the hypothesis that inhibition of USP14 would result in endometrial cancer cells failing to progress through the cell cycle was tested. To this end, HEC155 and ECC1 endometrial cancer cells were incubated with the USP14 inhibitor VLX1570 over a period of 24 hours and the cell cycle status was analyzed by flow cytometry after staining with propidium iodide. […]

[9] = system: COV362 ovarian cancer cells; experiment: Cell viability of sensitive and carboplatin-resistant COV362; type: cell-based
Procedure: as §10, §11, §12

[10] = system: ECC1 endometrial cancer cells; experiment: Cell cycle distribution by propidium iodide flow cytometry, ECC1; type: cell-based; conditions: ECC1, 300 nM, 24 hours
Procedure: as §7, §13

ovarian cancer cells = experiment: Active caspase-3 levels in ovarian cancer cells; type: cell-based; conditions: increasing concentrations
[11] = system: cisplatin resistant ovarian cancer cell lines HEY and OVCA-3 and primary cells from patients with recurrent and resistant disease; experiment: Cell viability (XTT) of chemoresistant ovarian cancer cells exposed to USP14 inhibitor; type: cell-based, human; conditions: increasing concentrations, 48 hours
Procedure: Inhibition of USP14 selectively kills ovarian cancer cell lines resistant to cisplatin and primary ovarian cancer cells derived from patients with recurrent and chemoresistant disease. Sensitivity to inhibition of USP14 was evaluated in exponentially growing human fibroblasts, in the exponentially growing cisplatin resistant ovarian cancer cell lines HEY and OVCA-3 and in two exponentially growing primary cells derived from patient with recurrent and resistant (to carboplatin) disease. Primary cells were obtained according to a method recently described in two manuscripts.

[12] = system: ECC1 endometrial cancer cell line; experiment: Multi-step carboplatin chemoresistance model, ECC1; type: cell-based
Text: USP14 is co-expressed with ETM makers during the multi-stage process leading to chemoresistance. Acquisition of aggressive phenotype and chemoresistance is a multi-stage process whereby the subpopulation of cells surviving drug treatment give rise to cells characterized by increased in migratory behavior, proliferation rate and chemoresistance via a transition accompanied by increase in stem cell and epithelial-mesenchymal transition (EMT) markers. This model was recapitulated in ECC1 endometrial cancer cell line and the temporal USP14 expression was evaluated during this multi-step process. Specifically. ECC1 cells were exposed to two rounds of carboplatin treatment (20 μM) over the period of two weeks. The first round resulted with approx. 60% of cell death. The second round resulted with approx. 90% of cell death. Consistent with what previously shown, the surviving population was characterized by giant, polyploidy, chemoresistant cells whose numbers remained similar over the course of the following two weeks. […] Next, the expression levels of USP14 and the EMT marker vimentin were evaluated in the initial population (chemosensitive tumor) and in two of the chemoresistant clones. USP14 overexpression is temporally associated to the expression of the EMT marker vimentin.

[13] = system: carboplatin sensitive cancer cells; experiment: Multi-step carboplatin chemoresistance model in vitro (Example 2); type: cell-based; conditions: 10 μM, two rounds over two weeks
Procedure: Multi-step process leading to recurrence can be recapitulated in vitro and results with up-regulation of USP14. Carboplatin chemoresistance was recapitulated in vitro according to the model schematized in FIG. 9. Specifically, carboplatin sensitive cancer cells were exposed to two rounds of carboplatin treatment (10 μM) over the period of two weeks. The first round resulted with approx. 60% of cell death. The second round resulted with approx. 90% of cell death. This is consistent with the dramatic reduction in tumor burden in chemosensitive patients treated with neoadjuvant chemotherapy. […] As shown in FIG. 9 the chemotherapy surviving population was characterized by stem like giant, polyploidy, chemoresistant cells whose numbers remained similar over the course of the following two weeks. This population was the precursor of clones of cells that survived in presence of carboplatin. Strikingly, when the expression levels of USP14 and the […] marker vimentin were evaluated in the initial population (chemosensitive tumor) and in two of the chemoresistant clones isolated. USP14 overexpression is temporally associated to over-expression of the […] marker, vimentin.

[14] = read-out: IC50, inhibition of cell viability
[15] = read-out: IC50 for carboplatin, cell viability
[16] = ECC1, 20 μM, two rounds over two weeks

In the case of `C=CC(=O)N1CC/C(=C\c2ccc(F)c([N+](=O)[O-])c2)C(=O)/C(=C/c2ccc(F)c([N+](=O)[O-])c2)C1` [VLX1570], the “anti-proliferative concentration, times lower than that required for carboplatin” value ([1]; HEC155) is reported as 500 times, the IC50 [1, 14] is reported as 0.182 µM and the “inhibition of ubiquitin-dependent protein degradation (dose course)” value ([2]; HEC155, 0-250 μM, 24 hours) is reported as “dose-dependent inhibition of ubiquitin-dependent protein degradation”. The “start of accumulation of poly-ubiquitinated proteins after drug exposure” value ([2]; HEC155, 250 nM) was “two”, the “accumulation of poly-ubiquitinated proteins (time course)” value ([2]; HEC155, 250 nM, 0, 2, 8 or 12 hours) was “dose-dependent accumulation of poly-ubiquitinated proteins” and the “Annexin V staining cells” value ([3]; HEC155, 300 nM, 24 hours) was “increase of Annexin V staining cells”. For the same compound, the “fraction of cells taking up propidium iodide” value ([3]; HEC155, 300 nM, 24 hours) was “elevated”, the “levels of active caspase-3” value ([3]; HEC155, 24 hours, versus mock) was “increased levels of active caspase-3” and the “Annexin V staining cells” value ([4]; ECC1, 300 nM, 24 hours) was “increase of Annexin V staining cells”. The “fraction of cells taking up propidium iodide” value ([4]; ECC1, 300 nM, 24 hours) was “elevated”, the “levels of active caspase-3” value ([4]; ECC1, 24 hours, versus mock) was “increased levels of active caspase-3” and the “killing concentration, fold lower than the one required with carboplatin” value ([5]; carboplatin-resistant ES-2) was “approx. 10 fold”. The IC50 ([5]; carboplatin-resistant ES-2 clones, 48 hours, read-out: IC50, inhibition of cell viability) was 7.11 µM, the “anti-proliferative concentration, times lower than that required for carboplatin” value ([6]; ECC1) was 800 times and the IC50 [6, 14] was 0.118 µM. For the same compound, the “inhibition of ubiquitin-dependent protein degradation (dose course)” value ([7]; ECC1, 0-150 μM, 24 hours) was “dose-dependent inhibition of ubiquitin-dependent protein degradation”, the “start of accumulation of poly-ubiquitinated proteins after drug exposure” value ([7]; ECC1, 150 nM) was “two” and the “accumulation of poly-ubiquitinated proteins (time course)” value ([7]; ECC1, 150 nM, 0, 2, 8 or 12 hours) was “dose-dependent accumulation of poly-ubiquitinated proteins”. For the same compound, the “percentage of cells in the G2/M phase versus controls” value [8] was “increase in the percentage of cells in the G2/M phase”, the “killing concentration, fold lower than the one required with carboplatin” value ([9]; carboplatin-resistant COV362) was “approx. 10 fold” and the IC50 ([9]; carboplatin-resistant COV362 clones, 48 hours, read-out: IC50, inhibition of cell viability) was 8.76 µM. The “percentage of cells in the G2/M phase, treated versus control” value [10] was “nearly double”.
With `O=C1/C(=C/c2ccc([N+](=O)[O-])cc2)CNC/C1=C\c1ccc([N+](=O)[O-])cc1` [RA-9, (3E, 5E)-3,5-bis(nitrobenzylidene)piperidin-4-one] the Caspase-3 activation (ovarian cancer cells) was “activation of Caspase-3” and the “effect on cell viability of chemoresistant ovarian cancer cells” value [11] was “killed chemoresistant ovarian cancer cells”.
For `N.N.O=C([O-])C1(C(=O)[O-])CCC1.[Pt+2]` [carboplatin], the IC50 [1, 15] was 77.5 µM, the “cell death, first round of carboplatin treatment” value [12, 16] was “approx. 60%” and the “cell death, second round of carboplatin treatment” value [12, 16] was “approx. 90%”. For the same compound, the “IC50 of chemoresistant clones as compared to the initial population” value ([12]; ECC1 chemoresistant clones) was > 3 fold, the “cell death, first round of carboplatin treatment” value [13] was “approx. 60%” and the “cell death, second round of carboplatin treatment” value [13] was “approx. 90%”. The “decrease in carboplatin sensitivity, resistant versus sensitive cells” value ([5]; ES-2, 48 hours exposure) was > 3 fold, the IC50 [6, 15] was 97.6 µM and the “decrease in carboplatin sensitivity, resistant versus sensitive cells” value ([9]; COV-362, 48 hours exposure) was > 4 fold.
